The record followed here is a melting point compilation (Tetko et al.; mined from patent text by program, amines drawn as free bases though some values may be those of a salt).

Bounds are passed on as bounds.

Take `CCOC(=O)C1=C(C(=O)OCC)N(c2ccccc2)C(c2ccccc2)N(c2ccccc2)C1` (centres undefined): the melting point came to 120 °C. In the case of `O=C(Nc1ccc(-n2cccn2)c(F)c1)OCc1ccccc1` it was 82 to 83 °C; in that of `CC(C)(C)c1cc(C(=O)NCc2ccc(N)cc2)cc(C(C)(C)C)c1O`, 188 to 189 °C; in that of `COC(=O)CC(C(OC)OC)C(C)(C)S(=O)(=O)c1ccc(C)cc1` (centres undefined), 110 °C. The result for `CS(=O)(=O)n1ccc2c1CC(c1ccccc1)CC2=O` (centres undefined) reads 172 to 173 °C; that for `CC(O)CCCCn1cnc2c1c(=O)n(C)c(=O)n2C` (centres undefined), 93 to 94 °C. Take `C#CCOc1cc(-c2cc(C)c(C(F)(F)F)n(C)c2=O)c(F)cc1Cl`: the melting point lay within 107 to 108 °C. In the case of `COc1cccc(Sc2ccnc(Nc3cccc(CCO)c3)n2)c1` it was 122 to 124 °C. As to `CC(C)(C)c1cc(C[Si](C)(C)C)cc(C(C)(C)C)c1S`, the melting point lay within 100 to 101 °C. In the case of `COc1cc(-c2cnc3[nH]cc(C(=O)NC4CCCOC4)c3n2)cc(OC)c1OC` (centres undefined) it was 191 to 192 °C; in that of `Cc1cc(C(=O)O)ccc1N1CCOCC1`, 220 to 221 °C; in that of `CCCCCCCCCCCCCCC1(C(=O)OC)CO1` (centres undefined), 47 to 48 °C.

As to `CCOC(=O)c1cc(CBr)ccc1S(=O)(=O)NC(=O)Nc1nc(OC)cc(OC)n1`, the melting point lay in the range of 195 to 197 °C.

In turn, `O=C1COCCN1c1ccc(N2C[C@@H](CCl)OC2=O)cc1` showed a melting point of 143 to 146 °C. `O=C(NNC(=O)c1ccnc2[nH]ccc12)OCc1ccccc1`: the melting point is 203 to 204 °C. The compound `COC(=O)C(Oc1ccc2c(c1)CCC2)c1ccc(OCCCOc2ccc(Cl)cc2)cc1` (centres undefined) returned a melting point of 60 to 62 °C. The compound `COC(=O)c1ccc2oc(CCCc3cc4cc(C(=O)OC)ccc4o3)cc2c1` returned a melting point of 87 to 88 °C. In turn, `Cc1oc(C=Cc2ccccc2Cl)nc1C(=O)O` registered a melting point of 223 to 224 °C. `CN(C)C=Nc1ncc[nH]1` registered a melting point of 146 to 147 °C. As to `COC(=O)c1c(C(F)F)nc(C(F)(F)F)c(-n2cccc2)c1C1CCC1`, the melting point is 70 to 71 °C. In turn, `CCOC(=O)/C(=N\OCCN=[N+]=[N-])c1csc(N)n1` registered a melting point of 123 to 124 °C. The result for `Fc1ccc(CN2CCN(C3CC=C(c4ccc(F)cc4)CC3)CC2)cc1` (centres undefined) reads 109 to 110 °C.

On to `CCN(CC)c1cccc(-c2ccnc3c(C(=O)c4cccs4)cnn23)c1`, for which the melting point fell in the range of 102 to 104 °C. `C/C(=C(\C#N)C(N)=S)N1CCCN(c2ccccc2)CC1` displayed a melting point of 151 to 153 °C. The result for `CN1CCN(c2cc(Cl)cc3c2c(=O)n(Cc2ccccc2)c(=O)n3C)CC1` reads 132 to 136 °C. For the compound `CC(=O)OC1CCCC2=CC=C3C4CCC(C(C)CCCC(C)C)C4(C)CCC3C21C` (centres undefined), the melting point is 105 to 106 °C.

In turn, `C=CCn1cc(C(=O)O)c(=O)c2cc(F)c(N3CCN(Cc4ccccc4)CC3)cc21` displayed a melting point of 209 °C.

`O=C(O)CNC(=O)CCc1cccc(-c2nc(=O)c3ccccc3s2)n1` returned a melting point of 219 to 220 °C.

With `CCCCCC(=O)N1C(=O)CC[C@H]1C(=O)O`, the melting point was 85 to 90 °C. The result for `CC(Oc1ccc(F)cc1)C1CN(c2ccccc2)CCN1` (centres undefined) reads 80 to 82 °C. Turning to `CCOc1cc(N)c(Cl)cc1C(=O)NCC1CN(Cc2ccccc2Cl)C(C)(C)CO1` (centres undefined), the melting point lay in the range of 181 to 184 °C.

Turning to `CCNc1nc(Cc2ccc(OC)c(OC)c2)nc2sc(C#N)c(C)c12`, the melting point is 125 to 126 °C. `COC(=S)OC(C(=O)O)c1ccccc1` (centres undefined): the melting point fell in the range of 86 to 87 °C. In the case of `CC(=O)OC[C@H]1O[C@@H](c2ccc(C)c(Cc3ccc(-c4ccc(F)cc4)s3)c2)[C@H](OC(C)=O)[C@@H](OC(C)=O)[C@@H]1OC(C)=O` it was 160 to 170 °C. In the case of `COc1cccc2c1C(C)(C)c1ccccc1C2` it was 62 to 64 °C; in that of `O=C(NC(Nc1c(Nc2cccnc2)c(=O)c1=O)C(F)(F)C(F)(F)F)c1cccc(Cl)c1` (centres undefined), 212 to 213 °C.

`O=C(O)c1cn(C2CC2)c2cc(-c3ccncc3)ccc2c1=O` registered a melting point of 278 to 281 °C.

Take `CCOC(=O)CCCc1ccc(Nc2ncc3cc(-c4c(Cl)cccc4Cl)c(=O)n(C)c3n2)cc1`: the melting point fell in the range of 169 to 170 °C.

`CCOC(=O)c1[nH]c(=O)c(CC(C)C)[n+]([O-])c1N` came in with a melting point of 179 to 181 °C.

`CC(=O)NC1(c2ccccc2)C2=NCC(C)(C)CN2c2ccccc21` (centres undefined): the melting point was greater than 300 °C. In turn, `CC(=O)N(C)c1cccc(-c2ccc(Cl)nn2)c1` came in with a melting point of 118 to 120 °C. The compound `Cn1cc(C2=C(c3cn(CCC(N)=O)c4ccccc34)C(=O)NC2=O)c2ccccc21` displayed a melting point of 243 to 247 °C. Compound `Cc1ccccc1[C@@H](CCC(=O)O)Oc1cc(OCc2ccsc2)ccc1[N+](=O)[O-]` displayed a melting point of 130 to 131 °C.

`CC(=O)C(=[N+]=[N-])C(=O)CCc1ccccc1` returned a melting point of 30 to 32 °C. The result for `O=C1C2CCCCN2C(=O)N1c1ccc([N+](=O)[O-])c2ccccc12` (centres undefined) reads 190 to 192 °C; that for `Cc1c(F)ccc(C#N)c1Cl`, 63 to 65 °C. The compound `N#Cc1c(=O)[nH]c2cc(Cl)c(Cl)cc2[n+]1[O-]` displayed a melting point of 294 to 296 °C. `CC(C)(C)c1cc(NC(=O)C2CCCCC2C(=O)O)cc(C(C)(C)C)c1O` (centres undefined) yielded a melting point of 247 to 252 °C. On to `O=C(O)Cc1c(C(=O)c2ccc(-c3ccccc3)cc2)[nH]c2cc(Cl)ccc12`, for which the melting point was in the range of 228 to 231 °C. `CCOC(=O)N(CCN(C(=O)OCC)C1CCCCC1)C1CCCCC1` yielded a melting point of 108 °C. In the case of `CCCCOc1nc(N)c2nc(OC)n(CCNc3cccc(CC(=O)OC)c3)c2n1` it was 119 to 120 °C; in that of `CCN1C[C@@H](O)[C@H](N(C(=O)c2ccc(Cl)cc2)C2CCCCC2)C1` (relative stereo), 111 to 116 °C; in that of `N#Cc1ccc2c(c1)-c1cc(C#N)ccc1OCCO2`, 195 to 196 °C.

The compound `CCC(CC)c1ccc(OC)c2nc(Nc3c(C)cc(Cl)cc3OC)n(C)c12` had a melting point of 188 to 189 °C.

Consider `COc1ccc2cccc(NC(C)=O)c2c1`, for which the melting point is 154 to 155 °C.

`COc1c(C(C)(C)C)cc(C(=O)O)cc1C(C)(C)C` returned a melting point of 192 to 195 °C.

Take `CCOC(=O)c1sc(Oc2ccc(C(C)=O)c(O)c2)c2c1CCc1cnn(C)c1-2`: the melting point lay within 131 to 132 °C. Turning to `CC(C)(C)OC(=O)CN1CCN(CC(=O)O)C1=O`, the melting point lay within 112 to 113 °C. Consider `Cc1nn(-c2ccc(F)cc2)cc1C(=O)N(C)c1ccc(OCC(C)(C)C)c(C#N)c1`, for which the melting point was in the range of 65 to 69 °C. `CN(SN1CCOCC1)C(=O)Nc1ccc(Cl)c(Cl)c1` yielded a melting point of 142 °C. `CC(C)(C)OC(=O)N[C@H](Cc1ccc(Cl)c(Cl)c1)C(=O)N1CCC[C@H]1C(=O)NC1CCc2n[nH]cc2C1` (some centres undefined) came in with a melting point of 116 to 119 °C.

Consider `CCC(=C(c1ccccc1)c1ccc(C=CCO)cc1)c1ccccc1`, for which the melting point lay within 80 to 83 °C. As to `Cc1c(C(N)=O)ncn1-c1cccc(Cl)c1`, the melting point was 179 to 181 °C.

In turn, `Cn1c(C#N)c(Br)n(-c2ccc(Cl)cc2)c1=O` showed a melting point of 185 °C.

In general, melting point refers to the temperature, or range, at which the solid turns liquid.
